One block for each molecule: values may come before it.
Columns and labels:
[1] = test system: JIMT-1 cell line; test: MTS cell viability assay in JIMT-1 cell line; format: cell-based; conditions: Homo sapiens, JIMT-1, 72 hours
Description: The control group was treated with DMSO as an untreated group (0 μM) of the indazole derivative of the present disclosure.
(§1) Specifically, cells were attached to 96 well plates for 24 hours, and then treated with the indazole derivatives for 72 hours. Thereafter, the cells were chromogenized with MTS for 4 hours, and the absorbance was measured at 490 nm using a Spectramax Plus384 microplate analyzer.
HER2 positive breast cancer (HER2+BC) cell lines, BT474 (cell seeding numbers: 2.4 (BT474)×10^4 cells/wells (confluency≥50%)) sensitive to trastuzumab and JIMT-1 (cell seeding numbers: 1.0 (JIMT-1)×10^4 cells/wells (confluency>30%)) resistant to trastuzumab were used in the experiment.
(§2) In this case, the cell lines were treated with the benzopyran derivative at a concentration of 10 μM for 72 hours and the cell lines were treated with the indazole derivative at a concentration of 10 μM for 72 hours, and then the cell viability was measured.

[2] = test system: MDA-MB-231 cell line; test: MTS cell viability assay in MDA-MB-231 cell line; format: cell-based; conditions: Homo sapiens, MDA-MB-231, 72 hours
Description: A HER2 positive breast cancer (HER2+BC) cell line, JIMT-1 (cell seeding numbers: 1.0 (JIMT)×10^4 cells/wells (confluency≤30%)) and a triple-negative breast cancer (TNBC) cell line, MDA-MB-231 (cell seeding numbers: 1.0 (M231)×10^4 cells/wells (confluency≤30%) were used in the experiment.
The above cell lines were cultured in Dulbecco's Modified Eagle's Medium (DMEM) or Eagle's minimum Essential Medium (MEM) each containing 10% fetal bovine serum (FBS), streptomycin-penicillin (100 U/ml), and Fungizone (0.625 μg/ml), respectively under 5% CO2, 37° C. environment.
The JIMT-1 cell line and MDA-MB-231 cell line were treated with the indazole derivatives (formulas 1-1 to 1-53) of the present disclosure at a concentration of 10 μM each for 72 hours, and then cell viability was measured using the MTS assay technique. The control group was treated with DMSO as an untreated group (0 μM) of the indazole derivative of the present disclosure.
as §1, with “analyzer. The significance between the control group and the experimental group was verified using an unpaired Students t-test (*p<0.01; DMSO control vs indazole series).” for “analyzer.”
HER2-positive breast cancer cell lines, BT474 (cell seeding numbers: 2.0 (JIMT)×10^4 cells/wells (confluency≤30%)) sensitive to trastuzumab, and JIMT-1 (cell seeding numbers: 1.0 (JIMT)×10^4 cells/wells (confluency≤30%)) resistant to trastuzumab, and a triple-negative breast cancer cell line, MDA-MB-231 (cell seeding numbers: 1.0 (M231)×10^4 cells/wells (confluency≤30%)) were used.
The BT474, JIMT-1, and MDA-MB-231 cell lines were treated with compound 18c (formula 1-16) and compound 11k (formula 1-7) at concentrations of 0 (DMSO), 0.1, 0.5, 1, 5, 10, and 20 μM, respectively, for 72 hours, and then cell viability was measured using the MTS assay technique as explained by the description of Experimental Example 1. The cell viability experiment was performed independently three times, and the significance was verified by a One-Way Anova, Bonferroni post-hoc test (*p<0.01; DMSO control vs. compound 18c or compound 11k).
In addition, the JIMT-1 and MDA-MB-231 cell lines were treated with compound 11m (formula 1-9), 11n (formula 1-10) and compound 12k (formula 1-13) at concentrations of 0 (DMSO), 0.1, 1, 5, 10, and 20 μM, respectively, for 72 hours, and then cell viability was measured.
(§3) Meanwhile, triple-negative breast cancer cell lines MDA-MB-231 and BT549, and a mouse breast cancer cell line 4T1 were treated with compound 38 (formula 1-30) at concentrations of 0 (DMSO), 0.1, 0.5, 1, 2, 5, 10, and 20 μM for 72 hours, and then cell viability was measured.
as §2, with “The indazole derivative of the present disclosure was compared with the benzopyran derivative of the related art (KR 10-2304532) in terms of cell viability of the BT474, JIMT-1, and MDA-MB-231 cell lines (Table 1). In” for “In”

[3] = test system: BT549 cell line; test: Annexin V/PI staining, type of cell death, BT549; format: cell-based
Description: (§4) Meanwhile, triple-negative breast cancer cell lines, MDA-MB-231 and BT549 were treated with compound 38 (formula 1-30), and then the type of cell death was determined by Annexin V/PI staining.

[4] = test system: mouse breast cancer cell line 4T1; test: MTS cell viability assay in 4T1 cell line; format: cell-based; conditions: 4T1, 72 hours
Description: as §1, with “analyzer. The significance between the control group and the experimental group was verified using an unpaired Students t-test (*p<0.01; DMSO control vs indazole series).” for “analyzer.”
as §3

[5] = test system: BT549 cell line; test: Cell morphology by phase contrast microscopy, BT549; format: cell-based; conditions: BT549, 5 and 10 μM, 72 hours
Description: (§5) MDA-MB-231 and BT549 cell lines were treated with compound 38 (formula 1-30) at concentrations of 0 (DMSO), 5, and 10 μM for 72 hours. Then, the drug-induced cytotoxicity was assessed by observing changes in cell morphology using phase contrast microscopy. The photographs were taken at a magnification of ×200 using phase contrast microscopy.

[6] = test system: MDA-MB-231 cell line; test: Cell morphology by phase contrast microscopy, MDA-MB-231; format: cell-based; conditions: MDA-MB-231, 5 and 10 μM, 72 hours
Description: as §5

[7] = test system: BT549 cell line; test: MTS cell viability assay in BT549 cell line; format: cell-based; conditions: Homo sapiens, BT-549; BT549, 72 hours
Description: as §1, with “analyzer. The significance between the control group and the experimental group was verified using an unpaired Students t-test (*p<0.01; DMSO control vs indazole series).” for “analyzer.”
as §3

[8] = test system: MDA-MB-231 cell line; test: Annexin V/PI staining, type of cell death, MDA-MB-231; format: cell-based; conditions: MDA-MB-231, Annexin V/PI staining
Description: as §4

[9] = Toxicity in JIMT-1 xenograft mice, combination with paclitaxel (body weight, AST, ALT, BUN); format: in vivo, Balb/c nude mice; conditions: combination study
[10] = test system: JIMT-1 breast cancer cell line xenograft; test: Tumor growth in JIMT-1 xenograft mouse model, combination with paclitaxel; format: in vivo, Balb/c nude mice
Description: This experiment was performed in an in vivo environment using a xenograft mouse model transplanted with the JIMT-1 breast cancer cell line.
6-week-old mice (Balb/c nude mice) were purchased and raised in an environment where they could freely access food and water. The mice were acclimated for more than 7 days, and then were transplanted with tumor cells. Tumor cells were injected subcutaneously into the mammary gland tissue of JIMT-1 breast cancer cells at a density of 3×10^6 cells/mL per individual, and when the tumor reached a size of 50 to 100 mm^3, the indazole derivative of the present disclosure was administered intraperitoneally, and the tumor growth was measured.

IC50 [2]: 3.65 µM
Structure (SMILES): COc1c(C(=O)Nc2ccc3c(C)nn(CCCN4CCN(C)CC4)c3c2)ccc2c1C=CC(C)(C)O2 [compound 11n, 5-methoxy-2,2-dimethyl-N-(3-methyl-1-(3-(4-methylpiperazin-1-yl)propyl)-1H-indazol-6-yl)-2H-chromene-6-carboxamide]
IC50 [1]: 3.28 µM

IC50 [2]: 2.05 µM
Structure (SMILES): COc1c(C(=O)Nc2ccc3cnn(CCC4CCN(C)CC4)c3c2)ccc2c1C=CC(C)(C)O2 [compound 12k, 5-methoxy-2,2-dimethyl-N-(1-(2-(1-methylpiperidin-4-yl)ethyl)-1H-indazol-6-yl)-2H-chromene-6-carboxamide]
IC50 [1]: 5.56 µM

IC50 [4]: 1.21 µM | IC50 [2]: 3.67 µM | IC50 [7]: 4.84 µM
Structure (SMILES): Cc1nn(CCC2CCN(C)CC2)c2cc(NC(=O)c3ccc4c(c3Cl)C=CC(C)(C)O4)ccc12 [compound 38, 5-chloro-2,2-dimethyl-N-(3-methyl-1-(2-(1-methylpiperidin-4-yl)ethyl)-1H-indazol-6-yl)-2H-chromene-6-carboxamide]
type of cell death (apoptosis) [3]: early and late apoptosis of cancer cells was induced | changes in cell morphology (cytotoxicity) [5]: morphological changes in which the cytoplasm shrank | changes in cell morphology (cytotoxicity) [6]: morphological changes in which the cytoplasm shrank | type of cell death (apoptosis) [8]: early and late apoptosis of cancer cells was induced

Structure (SMILES): CC(=O)O[C@H]1C(=O)[C@@]2(C)[C@H]([C@H](OC(=O)c3ccccc3)[C@]3(O)C[C@H](OC(=O)[C@H](O)[C@@H](NC(=O)c4ccccc4)c4ccccc4)C(C)=C1C3(C)C)[C@]1(OC(C)=O)CO[C@@H]1C[C@@H]2O [paclitaxel, reference compound]
AST and ALT levels, BUN assay ([9]; blood of the mouse model): levels similar to those of the control group | body weight [9]: remained unchanged | tumor weight ([10]; measured after tumor resection): 488.333 mg | tumor volume ([10]; measured at 40 days after drug administration): 813.356 mm^3
